Patent EP3415523A1, “COMBINATION MEDICAMENT COMPRISING A PRODRUG AND INHALABLE CATALYST” (priority 2017, dated 2018)

Key:
[1] = system: mammalian cells; conditions: in vitro test on mammalian cells; cited from earlier work
[2] = system: A549 cells; assay: EC50 experiments, dose response of cell viability (PrestoBlue); assay type: cell-based; conditions: 3 days of treatment, prodrug versus its deprotected counterpart (gemcitabine)
Procedure: A549 cells were seeded in 96-well plates at a cell concentration of 2,000 cells/well and incubated overnight before treatment. Each well was then replaced with 100 µL of fresh F-12K medium containing protected gemcitabine (concentration ranging from 10^4 µM to 10^-4 µM) and DMSO (2% v/v), control wells were replaced with 100 µL of fresh F-12K medium and DMSO (2% v/v). Control and treated plates were incubated for 72 h before PrestoBlue cell viability reagent (10% v/v) was added to each well and the plate incubated for 2 h. Fluorescence emission was measured using a microplate reader (Tecan; ex: 540 nm; em: 590 nm).
Dose-response experiments were performed in order to determine the half maximal effective concentration (EC50) of both the drug as well as the prodrug.

[3] = system: A549 cells; assay: Extracellular prodrug activation, viability assay (PrestoBlue); assay type: cell-based; conditions: 0.05 µM; for viability: 3 days
Procedure: A549 cells were seeded in 96-well plates at a cell concentration of 4,000 cells/well and incubated overnight before treatment. Each well was then replaced with 100 µL of fresh F-12K medium containing protected gemcitabine (0.05 µM) and DMSO (2% v/v), control wells were replaced with 100 µL of fresh F-12K medium and DMSO (2% v/v). Plates were incubated for 1 h before 10 µL of a platinum nanoparticles solution (50 ppm, 3 nm diameter) was added to each well and 10 µL of water was added to control wells. Plates were incubated for 1 h before placing them in a custom-designed gas chamber. Control plates were left untouched in the incubator. The chamber was placed in the incubator, connected to a gas bottle outside the incubator and to an outlet. The gas chamber was flushed for 1 min with hydrogen gas at 1 bar and closed. Plates were incubated 2 h in the gas chamber before placing them back in the incubator with the control plates. Control and treated plates were incubated for 72 h before PrestoBlue cell viability reagent (10% v/v) was added to each well and the plate incubated for 2 h. Fluorescence emission was measured using a microplate reader (Tecan; ex: 540 nm; em: 590 nm).
This could be due to a constitutively occurring slow reduction of the nitro group by the cells. […] Although this would require further investigations, it could be a consequence of the increased lipophilicity of the protected drug thereby conferring an increased uptake of the drug with respect to its deprotected counterpart.

| Structure (SMILES) | mutagenic / genotoxic [1] | difference of EC50 values of drug and prodrug [2] | viability ([3]; both hydrogen and platinum present, compared with positive control gemcitabine) | viability ([3]; the 3 conditions where either hydrogen and/or platinum is missing) | activity of the drug ([3]; Fig. 7 and Fig. 8, 3 days, 5 ppm or 10 ppm platinum nanoparticles, four conditions with/without hydrogen and catalyst) |
| --- | --- | --- | --- | --- | --- |
| Cc1ccc(N)cc1 [p-toluidine] | neither mutagenic nor genotoxic |  |  |  |  |
| O=C(Nc1ccn([C@@H]2O[C@H](CO)[C@@H](O)C2(F)F)c(=O)n1)OCc1ccc([N+](=O)[O-])cc1 [gemcitabine prodrug, p-Nitrobenzyloxycarbonyl Gemcitabine] |  | about 5 orders of magnitude | slightly lower viability than the positive control with gemcitabine | A small decrease | only recovered if both the hydrogen and the platinum nanoparticles are present |
